Experimental data as given in patent US11400082B2, “Methods of treating elevated plasma cholesterol” (Montréal Heart Institute, priority 2017, dated 2022).
Like-named read-outs stand apart in the source and are kept apart here.

How the values were obtained:
Golden Syrian = assay: Efficacy and safety in hypercholesterolemic animal models, Golden Syrian; assay type: in vivo; conditions: 10 days
Description: (§1) For in vivo proof-of-concept animal studies, wild-type C57BL/6 male mice (˜25 g; obtained from Charles River Laboratories) or Golden Syrian (˜120 g obtained from Envigo++) were housed in the 12 hour light/12 hour dark cycle, temperature and humidity controlled MHI animal facility. […] TD.88137, Envigo) for 14 days. […] Equivalent volume of vehicle containing corresponding formulations were orally administered to mice daily and designated as placebo (vehicle). […] Total cholesterol (catalog no. 439-17501, Wako) was quantified in total plasma and in each 0.3 mL collected fractions or in-line (Lipidomics Core of The Group on Molecular and Cell Biology of Lipids, University of Alberta) according to the manufacturer's instructions. Relative quantitation of AUC of total cholesterol corresponding to non-HDL lipoprotein positive fractions obtained from FPLC profiles are included in Table 3. Serum aspartate aminotransferase (AST) and alanine transaminase (ALT) were measured by the Montreal Heart Institute biochemical clinical chemistry platform according to manufacturer's recommendations.

[1] = Pharmacokinetics in adult Sprague-Dawley rats; assay type: in vivo; conditions: average n = 4; for Cmax / AUC / AUC(0-t): rat blood
Description: All animal studies were approved by the Montreal Heart Institute (MHI) Animal Care and Ethical committee. Pharmacokinetic experiments were performed in collaboration at the Montreal Heart Institute in collaboration with the Platform of Biopharmacy at Université de Montréal. Briefly, Compound 2 (formulation PG:H20; 50:50 stock solution 2.5 mg/ml) was administered intravenously (iv) at 5 mg/kg (n=4) or by oral gavage (PO) at 25 mg/kg (n=4) in adult Sprague-Dawley male rats (˜200 g). […] Samples were mixed and centrifuged at 15000 rpm for 5 min. 50 μL of supernatant were transferred to an HPLC plate, and 100 μL of water+0.1% formic acid were added. […] Samples were analyzed in MRM mode using LC-MS/MS. The calibration curve was plotted using the ratio of the analyte peak area and the IS peak area, using a quadratic regression. Pharmacokinetic (PK) parameters were calculated using Kinetica Software for PK/PD Data Analysis, Simulation and Reporting (Thermo Fisher), based on the blood concentrations of each animal. Results are described in Table 4 and illustrated in FIG. 20.

in vitro = conditions: pH 7.4; for -k: 1 μM; for half-life at 1 μM / microsomal CLint at 1 μM: microsomes
Description: Pooled human liver microsomes (HLM; Cat #X008067 lot IHG) and pooled male Sprague Dawley rat liver microsomes (RLM; Cat #M00001 Lot NNK) were purchased from BioreclamationIVT, Baltimore, Md. NADPH (Cat #N1630, 95% HPLC) and DMSO (GC grade) were purchased from Sigma-Aldrich, Canada. Potassium phosphate buffer (100 mM) with magnesium chloride pH 7.4 was prepared freshly. […] Reactions were initiated by adding NADPH (final concentration 1 mM) in all the wells. Reactions without NADPH were also incubated (final point only) to rule out non-NADPH metabolism or chemical instability in the incubation buffer. Reactions were terminated at each time point (0, 5, 10, 20, 30, 45 and 60 min) by transferring 50 μL in a new 96 well plate and adding 100 μl of acetonitrile containing an internal standard (labetalol at 2 μM). The plates were centrifuged at 4000 rpm for 5 min, and an aliquot of supernatant was diluted with one volume of water+0.1% formic acid before analysis by LC-MS/MS. Reference samples were also prepared at concentrations between 0.002 and 2 μM in buffer containing microsomes, by adding the diluted solutions of the compound to the buffer containing microsomes quenched with 2 volume of acetonitrile containing the internal standard (whereas the incubation T0 is obtained by quenching the microsomes containing the compound, then adding NADPH). Samples were monitored for parent compound disappearance in Multi Reaction Monitoring (MRM) mode using LC-MS/MS. The peak area ratios of analyte versus internal standard compared to the calibration curve were used to calculate concentration at each time point. The elimination constant (ke, min-1) was obtained from the log-linear regression of the concentration (y) versus time (t). The half-life was calculated as T½ (min)=0.693/ke. The microsomal intrinsic clearance (Clint, μL/min/mg of protein) was calculated by the following equation: […]

C57BL/6 mice = assay: Efficacy and safety in hypercholesterolemic animal models, C57BL/6 mice; assay type: in vivo
Description: as §1

[2] = HFD, 40 mpk/d, animals out of n
[3] = male, Sprague-Dawley, rat, whole blood, PO 25 mg/kg
[4] = male, Sprague-Dawley, rat, whole blood, iv 5 mg/kg
[5] = male, Sprague-Dawley, whole blood, PO 25 mg/kg
[6] = male, Sprague-Dawley, whole blood, iv 5 mg/kg
[7] = C57BL/6, HFD, 40 mpk/d, 10 days, animals out of n

O=C(NO)c1ncc(COc2ccc(F)cc2)c(CO)c1O [Compound 2, 5-(4-fluoro-phenoxymethyl)-3-hydroxy-4-hydroxymethyl-pyridine-2-carboxylic acid hydroxyamide]
LDL-C (%) (FPLC TC) (pooled plasma) (Golden Syrian; Chow, 40 mpk/d, n 3): −12% | LDL-C (%) (FPLC TC) (pooled plasma) (Golden Syrian; HFD, 5 mpk/d, n 3): −21 ± 10% | LDL-C (%) (FPLC TC) (pooled plasma) (Golden Syrian; HFD, 10 mpk/d, n 3): −15 ± 16% | LDL-C (%) (FPLC TC) (pooled plasma) (Golden Syrian; HFD, 20 mpk/d, n 3): −40 ± 7% | ALT (3 × ULN) (Golden Syrian; [2]): 0/3 | AST (3 × ULN) (Golden Syrian; [2]): 0/3 | LDL-C (%) (FPLC TC) (pooled plasma) (Golden Syrian; HFD, 40 mpk/d, n 3 (second HFD 40 mpk/d line)): −26 ± 12% | LDL-C (%) (FPLC TC) (pooled plasma) (Golden Syrian; HFD, 40 mpk/d, n 3, value marked (n = 1)): −47% | Lz ([1]; PO 25 mg/kg): 0.24 h⁻¹ | Vss ([1]; PO 25 mg/kg): 2.43 L | clearance ([1]; PO 25 mg/kg): 13.44 mL/min | thalf ([1]; PO 25 mg/kg): 2.97 h | Cmax ([1]; PO 25 mg/kg): 7.09 μMolar | Lz ([1]; iv 5 mg/kg): 0.12 h⁻¹ | thalf ([1]; iv 5 mg/kg): 6.60 h | Cmax ([1]; iv 5 mg/kg): 81.12 μMolar | bioavailability ([1]; male, Sprague-Dawley, rat, whole blood, PO 25 mg/kg vs iv 5 mg/kg): 15% | MRT [1, 3]: 3.44 h | Tmax [1, 3]: 0.33 h | MRT [1, 4]: 0.55 h | Tmax [1, 4]: 0.08 h | clearance ([1]; male, Sprague-Dawley, rat, whole blood, iv 5 mg/kg, read-out: Clearance): 2.2 mL/min | Vd ([1]; male, Sprague-Dawley, rat, whole blood, iv 5 mg/kg, read-out: Vss): 0.08 L | AUC [1, 5]: 24.3 µM·h | AUC(0-t) [1, 5]: 24.2 µM·h | AUC [1, 6]: 31.9 µM·h | AUC(0-t) [1, 6]: 31.8 µM·h | -k (in vitro; human): 0.000703 ± 1.9e-05 min⁻¹ | half-life at 1 μM (in vitro; human): 16.4 ± 0.45 h | microsomal CLint at 1 μM (in vitro; human): 1.17 ± 0.03 µL/min/mg | -k (in vitro; male, Sprague Dawley, rat): 0.00126 ± 0.00019 min⁻¹ | half-life at 1 μM (in vitro; male, Sprague Dawley, rat): 6.73 ± 0.467 h | microsomal CLint at 1 μM (in vitro; male, Sprague Dawley, rat): 6.19 ± 0.42 µL/min/mg | LDL-C (%) (FPLC TC) (pooled plasma) (C57BL/6 mice; C57BL/6, Chow, 25 mpk/d oral gavage, 3 days, n 3): −31% | LDL-C (%) (FPLC TC) (pooled plasma) (C57BL/6 mice; C57BL/6, HFD, 5 mpk/d oral gavage, 10 days, n 4): −3 ± 8% | LDL-C (%) (FPLC TC) (pooled plasma) (C57BL/6 mice; C57BL/6, HFD, 25 mpk/d oral gavage, 10 days, n 4): −28 ± 8% | LDL-C (%) (FPLC TC) (pooled plasma) (C57BL/6 mice; C57BL/6, HFD, 40 mpk/d oral gavage, 10 days, n 4): −35 ± 2% | ALT (3 × ULN) (C57BL/6 mice; [7]): 0/4 | AST (3 × ULN) (C57BL/6 mice; [7]): 0/4
